Source: ChEMBL document CHEMBL5390242, “Design, Synthesis, and Antitumor Efficacy of Substituted 2-Amino[1,2,4]triazolopyrimidines and Related Heterocycles as Dual Inhibitors for Microtubule Polymerization and Janus Kinase 2” (J Med Chem, 2023)
pIC50: −log10 of the molar value. Calls of active or inactive are those of the source. The rule behind the calls is not given here.

Legend:
COLO 205 = experiment: Cytotoxicity against human COLO 205 cells assessed as cell growth inhibition incubated for 48 hrs by MTT assay; format: functional, cell-based; conditions: COLO 205, 48 h
A549 [1] = experiment: Induction of apoptosis in human A549 cells assessed as late apoptotic cells at 10 nM incubated for 24 hrs by Annexin V-FITC/PI staining based flow cytometry (reference value: 1.72 %); format: functional
A549 [2] = experiment: Induction of apoptosis in human A549 cells at 5 uM incubated for 24 hrs by Annexin V-FITC/PI staining based flow cytometry; format: functional
[3] = Toxicity in Balb/c mouse xenografted with human A549 cells assessed as effect on lung morphology at 50 mg/kg,ip administration measured after 31 days by Hematoxylin-eosin staining based microscopy; format: organism-based; conditions: in vivo, 744 h, time 31 day
[4] = target: Tyrosine-protein kinase JAK2 (Homo sapiens, UniProt O60674); experiment: Inhibition of JAK2 (unknown origin) using Poly-(Glu,Tyr 4:1) peptide as substrate in presence of ATP by ADP-Glo reagent based assay
Tyrosine-protein kinase JAK2, sequence (O60674 whole entry): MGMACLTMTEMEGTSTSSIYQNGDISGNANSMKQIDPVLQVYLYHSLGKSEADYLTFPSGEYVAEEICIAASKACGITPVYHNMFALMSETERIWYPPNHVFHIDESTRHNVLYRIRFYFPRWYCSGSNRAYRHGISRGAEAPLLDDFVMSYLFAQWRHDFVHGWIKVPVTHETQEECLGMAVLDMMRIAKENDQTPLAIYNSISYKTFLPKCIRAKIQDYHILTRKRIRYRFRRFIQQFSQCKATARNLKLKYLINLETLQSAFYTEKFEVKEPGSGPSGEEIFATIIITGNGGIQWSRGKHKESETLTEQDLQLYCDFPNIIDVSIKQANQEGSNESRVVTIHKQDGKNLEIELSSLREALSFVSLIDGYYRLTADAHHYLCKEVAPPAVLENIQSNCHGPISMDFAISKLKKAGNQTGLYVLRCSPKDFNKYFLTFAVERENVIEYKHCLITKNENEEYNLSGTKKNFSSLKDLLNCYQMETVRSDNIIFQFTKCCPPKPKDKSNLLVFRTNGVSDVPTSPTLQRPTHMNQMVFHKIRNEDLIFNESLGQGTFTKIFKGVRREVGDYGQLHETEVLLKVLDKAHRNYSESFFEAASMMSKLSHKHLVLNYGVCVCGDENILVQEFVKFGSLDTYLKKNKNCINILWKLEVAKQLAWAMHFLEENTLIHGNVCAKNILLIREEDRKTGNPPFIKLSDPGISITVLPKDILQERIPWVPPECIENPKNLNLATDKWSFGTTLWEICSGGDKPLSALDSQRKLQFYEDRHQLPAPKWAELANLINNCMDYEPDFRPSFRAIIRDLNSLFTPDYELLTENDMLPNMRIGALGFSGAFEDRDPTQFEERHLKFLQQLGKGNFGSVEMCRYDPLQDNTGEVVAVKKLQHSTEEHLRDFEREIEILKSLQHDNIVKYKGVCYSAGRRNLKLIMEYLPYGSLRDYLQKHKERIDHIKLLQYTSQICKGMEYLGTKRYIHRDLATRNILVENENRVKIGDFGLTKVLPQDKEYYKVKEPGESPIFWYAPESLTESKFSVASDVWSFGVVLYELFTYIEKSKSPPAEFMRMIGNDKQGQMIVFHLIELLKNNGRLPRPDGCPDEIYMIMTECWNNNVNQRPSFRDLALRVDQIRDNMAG

[5] = Cytotoxicity against human ARPE-19 cells assessed as cell growth inhibition incubated for 48 hrs by MTT assay; format: toxicity, cell-based
[6] = MRT (0 to t) in CD-1 mouse at 10 mg/kg,ip measured upto 24 hrs by HPLC-MS/MS analysis; format: ADME, organism-based; conditions: in vivo
[7] = Half life in CD-1 mouse at 10 mg/kg,ip measured upto 24 hrs by HPLC-MS/MS analysis; format: ADME, organism-based; conditions: in vivo
[8] = Toxicity in Balb/c mouse xenografted with human A549 cells assessed as change in body weight at 50 mg/kg,ip administration measured after 31 days; format: organism-based; conditions: in vivo, 744 h, time 31 day
A549 [9] = experiment: Induction of mitochondrial membrane potential loss in human A549 cells by measuring red fluorescence at 10 nM incubated for 16 hrs by JC-1 staining based flow cytometry analysis (reference value: 99.3 %); format: functional
A549 [10] = experiment: Induction of cell cycle arrest in human A549 cells assessed as accumulation of cells at G2/M phase at 5 nM incubated for 24 hrs by PI/RNase staining based flow cytometry analysis; format: functional
A549 [11] = experiment: Induction of mitochondrial membrane potential loss in human A549 cells by measuring green fluorescence at 10 nM incubated for 16 hrs by JC-1 staining based flow cytometry analysis (reference value: 0.7 %); format: functional
MCF7 = experiment: cells; conditions: Homo sapiens, MCF7, 48 h
Description: Antiproliferative activity against human MCF7 cells assessed as cell growth inhibition incubated for 48 hrs by MTT assay

[12] = MRT (0 to t) in CD-1 mouse assessed as MRT (0 to t) of metabolite at 10 mg/kg,ip measured upto 24 hrs by HPLC-MS/MS analysis; format: ADME, organism-based; conditions: in vivo
[13] = MRT (0 to t) in CD-1 mouse at 1 mg/kg,iv measured upto 24 hrs by HPLC-MS/MS analysis; format: ADME, organism-based; conditions: in vivo
Tubulin (Homo sapiens) = Tubulin (Homo sapiens) (UniProt P68371+Q9H4B7+P0DPH7+P68366+Q13509+Q71U36+P04350+Q3ZCM7+P07437+P68363+Q9BQE3+Q6PEY2+Q13885+Q9BVA1+Q9BUF5); experiment: Disruption of microtubule assembly in human A549 cells at 1 uM incubated for 6 hrs by Hoechst33342 staining based immunofluorescence analysis; format: cell-based
[14] = target: JAK2-STAT3 (Homo sapiens) (UniProt O60674+P40763); experiment: Inhibition of JAK2/STAT3 signalling pathway in human A549 cells assessed as effect on JAK2 protein level at 5 to 20 uM incubated for 24 hrs by Western blotting analysis; format: cell-based; conditions: dose 5-20 µM
A549 [15] = experiment: Induction of apoptosis in human A549 cells assessed as necrotic cells at 20 nM incubated for 24 hrs by Annexin V-FITC/PI staining based flow cytometry (reference value: 0.67 %); format: functional
A549 [16] = experiment: Induction of apoptosis in human A549 cells assessed as viable cells at 20 nM incubated for 24 hrs by Annexin V-FITC/PI staining based flow cytometry (reference value: 93 %); format: functional; conditions: read-out: Activity
[17] = Antiproliferative activity against Chinese hamster CHO cells assessed as cell growth inhibition incubated for 48 hrs by MTT assay; format: toxicity, cell-based, Cricetulus griseus
A549 [18] = experiment: Induction of mitochondrial membrane potential loss in human A549 cells by measuring green fluorescence at 20 nM incubated for 16 hrs by JC-1 staining based flow cytometry analysis (reference value: 0.7 %); format: functional
A2780 = experiment: Antiproliferative activity against human A2780 cells assessed as cell growth inhibition incubated for 48 hrs by MTT assay; format: functional, cell-based; conditions: A2780, 48 h
[19] = AUC (0 to t) in CD-1 mouse at 1 mg/kg,iv measured upto 24 hrs by HPLC-MS/MS analysis; format: ADME, organism-based; set-up: dose 1 mg/kg, time < 24 hrs, route iv; conditions: in vivo
A549 [20] = experiment: Induction of apoptosis in human A549 cells assessed as early apoptotic cells at 20 nM incubated for 24 hrs by Annexin V-FITC/PI staining based flow cytometry (reference value: 4.61 %); format: functional
[21] = MRT (0 to infinity) in CD-1 mouse assessed as MRT (0 to infinity) of metabolite at 10 mg/kg,ip measured upto 24 hrs by HPLC-MS/MS analysis; format: ADME, organism-based; conditions: in vivo
[22] = Resistance index, ratio of IC50 for antiproliferative activity against human A2780T cells to IC50 for antiproliferative activity against human A2780 cells; format: functional
[23] = Antiproliferative activity against human A549/DDP cells assessed as cell growth inhibition incubated for 48 hrs by MTT assay; format: functional, cell-based
A549 [24] = experiment: Antitumor activity against human A549 cells xenografted in Balb/c mouse assessed as tumor size at 50 mg/kg,ip administration measured after 31 days; format: functional; conditions: time 31 day
[25] = Half life in CD-1 mouse at 1 mg/kg,iv measured upto 24 hrs by HPLC-MS/MS analysis; format: ADME, organism-based; conditions: in vivo
NCI/ADR-RES = experiment: cells; conditions: Homo sapiens, 48 h
Description: Antiproliferative activity against human MCF7ADR cells assessed as cell growth inhibition incubated for 48 hrs by MTT assay

[26] = target: Tyrosine-protein kinase JAK3 (Homo sapiens, UniProt P52333)
Tyrosine-protein kinase JAK3, sequence (P52333 whole entry): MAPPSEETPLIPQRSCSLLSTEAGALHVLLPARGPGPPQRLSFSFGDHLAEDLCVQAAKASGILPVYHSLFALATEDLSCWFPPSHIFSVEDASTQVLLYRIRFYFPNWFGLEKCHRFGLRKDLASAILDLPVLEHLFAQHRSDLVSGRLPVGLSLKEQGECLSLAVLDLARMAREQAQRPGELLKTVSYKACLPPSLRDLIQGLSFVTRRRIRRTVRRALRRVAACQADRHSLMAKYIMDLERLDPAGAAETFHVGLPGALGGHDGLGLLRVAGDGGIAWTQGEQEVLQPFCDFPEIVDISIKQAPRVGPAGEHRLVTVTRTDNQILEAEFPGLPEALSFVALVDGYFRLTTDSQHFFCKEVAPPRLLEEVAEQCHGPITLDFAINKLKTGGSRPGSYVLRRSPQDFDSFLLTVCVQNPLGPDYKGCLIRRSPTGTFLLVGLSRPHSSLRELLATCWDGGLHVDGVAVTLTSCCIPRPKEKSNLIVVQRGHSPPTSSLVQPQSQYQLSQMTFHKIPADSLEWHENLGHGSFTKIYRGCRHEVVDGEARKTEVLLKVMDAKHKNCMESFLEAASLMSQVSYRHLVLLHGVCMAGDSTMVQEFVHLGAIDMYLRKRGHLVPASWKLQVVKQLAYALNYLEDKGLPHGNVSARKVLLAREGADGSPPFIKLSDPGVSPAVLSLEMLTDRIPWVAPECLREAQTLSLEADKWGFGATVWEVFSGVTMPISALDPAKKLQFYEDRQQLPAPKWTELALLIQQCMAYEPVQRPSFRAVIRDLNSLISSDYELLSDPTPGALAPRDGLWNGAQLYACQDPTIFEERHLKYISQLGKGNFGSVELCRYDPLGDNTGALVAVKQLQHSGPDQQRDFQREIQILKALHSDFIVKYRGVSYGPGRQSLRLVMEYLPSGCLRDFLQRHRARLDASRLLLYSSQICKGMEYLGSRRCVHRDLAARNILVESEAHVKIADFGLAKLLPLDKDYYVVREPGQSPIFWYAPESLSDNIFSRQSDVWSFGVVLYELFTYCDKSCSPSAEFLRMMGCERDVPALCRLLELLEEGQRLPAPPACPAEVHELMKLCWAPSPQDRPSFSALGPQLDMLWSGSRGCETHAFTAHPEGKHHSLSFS
Description: Inhibition of JAK3 (unknown origin) using Poly-(Glu,Tyr 4:1) peptide as substrate in presence of ATP by ADP-Glo reagent based assay

PC-3 = experiment: Antiproliferative activity against human PC-3 cells assessed as cell growth inhibition incubated for 48 hrs by MTT assay; format: functional, cell-based; conditions: PC-3, 48 h
A549 [27] = experiment: Induction of mitochondrial membrane potential loss in human A549 cells by measuring red fluorescence at 20 nM incubated for 16 hrs by JC-1 staining based flow cytometry analysis (reference value: 99.3 %); format: functional
[28] = Toxicity in Balb/c mouse xenografted with human A549 cells assessed as effect on kidney morphology at 50 mg/kg,ip administration measured after 31 days by Hematoxylin-eosin staining based microscopy; format: organism-based; conditions: in vivo, 744 h, time 31 day
[29] = Cmax in CD-1 mouse assessed as Cmax of metabolite at 10 mg/kg,ip measured upto 24 hrs by HPLC-MS/MS analysis; format: ADME, organism-based; set-up: time < 24 hrs, dose 10 mg/kg, route ip; conditions: in vivo
[30] = Antiproliferative activity against human HCT-8/VCR cells assessed as cell growth inhibition incubated for 48 hrs by MTT assay; format: functional, cell-based
[31] = Half life in CD-1 mouse assessed as half life of metabolite at 10 mg/kg,ip measured upto 24 hrs by HPLC-MS/MS analysis; format: ADME, organism-based; conditions: in vivo

SMILES: COc1cc(-c2nccc3nc(Nc4cccc5[nH]ccc45)nn23)cc(OC)c1OC
- pIC50 (COLO 205): 7.92
- Activity (A549 [1]): 14.7%
- Activity (A549 [2]): 8.9%
- Activity [3]: Non-Toxic
- pIC50 [4]: 7.13
- IC50 at 48 h [5]: 5030 nM
- MRT last at 24 h [6]: 4.6 h
- half-life [7]: 5.5 h
- Activity [8]: Non-Toxic
- Activity (A549 [9]): 73.6%
- Activity (A549 [10]): 15.6%
- Activity (A549 [11]): 15.4%
- pIC50 (MCF7): 7.74
- MRT(t) [12]: 3.5 h
- MRT last at 24 h [13]: 5.2 h
- Activity (Tubulin (Homo sapiens)): Active
- inhibition [14]: inactive
- Activity (A549 [15]): 5.26%
- viability at 0.02 µM (A549 [16]): 9.34%
- IC50 at 48 h [17]: 24 nM
- Activity (A549 [18]): 44.1%
- pIC50 (A2780): 7.12
- AUC(0-t) at 24 h [19]: 364 ng·h/mL
- Activity (A549 [20]): 34.6%
- MRT [21]: 4 h
- Ratio IC50 [22]: 0.3
- pIC50 [23]: 7.44
- Activity (A549 [24]): 315.8 mm3
- half-life [25]: 6 h
- pIC50 (NCI/ADR-RES): 7.19
- pIC50 [26]: 4.91
- pIC50 (PC-3): 6.65
- Activity (A549 [27]): 55.9%
- Activity [28]: Non-Toxic
- Cmax [29]: 700.2 ng/mL
- pIC50 [30]: 7.31
- t1/2 [31]: 5.3 h
